Results as given in patent publication US20220324865A1 (Bayer Aktiengesellschaft, priority 2018, published 2022).

Molecular target: T1, human EP3 receptor (Homo sapiens, UniProt P43115)
T1 construct: expressed in transfected cells; host or cells: CHO K1 (Chinese Hamster Ovary), stably co-transfected with Galpha16 and mitochondrial clytin
T1 sequence (P43115 1-390): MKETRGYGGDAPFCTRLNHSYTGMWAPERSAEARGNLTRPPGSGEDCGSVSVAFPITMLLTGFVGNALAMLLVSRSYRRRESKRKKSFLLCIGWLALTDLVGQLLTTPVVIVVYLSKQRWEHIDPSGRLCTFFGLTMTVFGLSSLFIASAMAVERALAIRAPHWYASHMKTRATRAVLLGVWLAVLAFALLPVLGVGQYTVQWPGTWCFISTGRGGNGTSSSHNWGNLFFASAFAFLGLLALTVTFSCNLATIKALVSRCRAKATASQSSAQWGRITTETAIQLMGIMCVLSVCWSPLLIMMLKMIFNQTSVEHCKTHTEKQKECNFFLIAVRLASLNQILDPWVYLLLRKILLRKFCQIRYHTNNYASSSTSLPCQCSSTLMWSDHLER
Test: Cellular in vitro assay for determining EP3 receptor activity (human EP3 cell line, sulprostone-stimulated calcium luminescence)
Assay type: cell-based
Conditions: CHO cells expressing human EP3 and mitochondrial Clytin; antagonist mode, sulprostone at EC50; read-out: EP3 CHO mtCLY ANTAG IC50
In short: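 Antagonist activity was measured as inhibition of the luminescent calcium signal elicited by EC50 sulprostone, following 10 min compound pretreatment. The cell line was recombinant CHO K1 co-expressing human EP3, Gα16 and the photoprotein Clytin, reconstituted with coelenterazine.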

Row | IC50 | SMILES
1 | 5.8 nM | Cc1c(C(=O)NC2(c3ccc(Cl)cc3)CCC2)nn2c(C)c(-c3ccc4ccccc4c3)[nH]c(=O)c12 [Example 3-32, N-[1-(4-Chlorophenyl)cyclobutyl]-3,7-dimethyl-6-(naphthalen-2-yl)-4-oxo-4,5-dihydropyrazolo[1,5-a]pyrazine-2-carboxamide]
2 | 2.2 nM | CC[C@@H](NC(=O)c1nn2c(C)c(-c3ccc4ccccc4c3)[nH]c(=O)c2c1C)c1ccccc1 [Example 3-33, 3,7-Dimethyl-6-(naphthalen-2-yl)-4-oxo-N-[(7R)-1-phenylpropyl]-4,5-dihydropyrazolo[1,5-a]pyrazine-2-carboxamide]
3 | 6.05 nM | Cc1c(C(=O)NC2(c3ccccc3)CCOCC2)nn2c(C)c(-c3ccc4ccccc4c3)[nH]c(=O)c12 [Example 3-34, 3,7-Dimethyl-6-(2-naphthyl)-4-oxo-N-(4-phenyltetrahydro-2H-pyran-4-yl)-4,5-dihydropyrazolo[1,5-a]pyrazine-2-carboxamide]
4 | 5.05 nM | COc1ccc(C(NC(=O)c2nn3c(C)c(-c4ccc5ccccc5c4)[nH]c(=O)c3c2C)C2CC2)cc1 (centres unmarked) [Example 3-35, N-[Cyclopropyl(4-methoxyphenyl)methyl]-3,7-dimethyl-6-(2-naphthyl)-4-oxo-5H-pyrazolo[1,5-a]pyrazine-2-carboxamide]
5 | 6.55 nM | Cc1c(C(=O)NCc2cccc(CN3CCCC3)c2)nn2c(C)c(-c3ccc4ccccc4c3)[nH]c(=O)c12 [Example 3-36, 3,7-Dimethyl-6-(naphthalen-2-yl)-4-oxo-N-({3-[(pyrrolidin-1-yl)methyl]phenyl}methyl)-4,5-dihydropyrazolo[1,5-a]pyrazine-2-carboxamide]
6 | 2.4 nM | COc1ccc(C(CCO)NC(=O)c2nn3c(C)c(-c4ccc5ccccc5c4)[nH]c(=O)c3c2C)cc1 (centres unmarked) [Example 3-37, N-[3-Hydroxy-1-(4-methoxyphenyl)propyl]-3,7-dimethyl-6-(2-naphthyl)-4-oxo-5H-pyrazolo[1,5-a]pyrazine-2-carboxamide]
7 | 1.85 nM | COc1ccc(C(C)NC(=O)c2nn3c(C)c(-c4ccc5ccccc5c4)[nH]c(=O)c3c2C)cn1 (centres unmarked) [Example 3-38, N-[1-(6-Methoxy-3-pyridyl)ethyl]-3,7-dimethyl-6-(2-naphthyl)-4-oxo-5H-pyrazolo[1,5-a]pyrazine-2-carboxamide]
8 | 1.8 nM | COc1cccc(C(CCO)NC(=O)c2nn3c(C)c(-c4ccc5ccccc5c4)[nH]c(=O)c3c2C)c1 (centres unmarked) [Example 3-39, N-[3-Hydroxy-1-(3-methoxyphenyl)propyl]-3,7-dimethyl-6-(2-naphthyl)-4-oxo-5H-pyrazolo[1,5-a]pyrazine-2-carboxamide]
9 | 7.6 nM | Cc1c(C(=O)NC(CO)c2cc(Cl)cc(Cl)c2)nn2c(C)c(-c3ccc4ccccc4c3)[nH]c(=O)c12 (centres unmarked) [Example 3-40, N-[1-(3,5-Dichlorophenyl)-2-hydroxyethyl]-3,7-dimethyl-6-(2-naphthyl)-4-oxo-5H-pyrazolo[1,5-a]pyrazine-2-carboxamide]
10 | 3.95 nM | Cc1c(C(=O)NC(c2ccc(F)cc2)C(C)C)nn2c(C)c(-c3ccc4ccccc4c3)[nH]c(=O)c12 (centres unmarked) [Example 3-41, N-[1-(4-Fluorophenyl)-2-methylpropyl]-3,7-dimethyl-6-(2-naphthyl)-4-oxo-5H-pyrazolo[1,5-a]pyrazine-2-carboxamide]
11 | 4.9 nM | Cc1c(C(=O)NCc2cccc(CN(C)C)c2)nn2c(C)c(-c3ccc4ccccc4c3)[nH]c(=O)c12 [Example 3-42, N-({3-[(Dimethylamino)methyl]phenyl}methyl)-3,7-dimethyl-6-(naphthalen-2-yl)-4-oxo-4,5-dihydropyrazolo[1,5-a]pyrazine-2-carboxamide]
12 | 3.85 nM | Cc1c(C(=O)NC(C)c2ccccc2OC(F)F)nn2c(C)c(-c3ccc4ccccc4c3)[nH]c(=O)c12 (centres unmarked) [Example 3-43, N-[1-[2-(Difluoromethoxy)phenyl]ethyl]-3,7-dimethyl-6-(2-naphthyl)-4-oxo-5H-pyrazolo[1,5-a]pyrazine-2-carboxamide]
13 | 2.6 nM | CCn1cc(CNC(=O)c2nn3cc(-c4ccc5ccccc5c4)[nH]c(=O)c3c2C#N)c(C)n1 [Example 3-44, 3-Cyano-N-[(1-ethyl-3-methyl-1H-pyrazol-4-yl)methyl]-6-(naphthalen-2-yl)-4-oxo-4,5-dihydropyrazolo[1,5-a]pyrazine-2-carboxamide]
14 | 8.75 nM | Cn1cc(CNC(=O)c2nn3cc(-c4ccc5ccccc5c4)[nH]c(=O)c3c2C#N)cn1 [Example 3-45, 3-Cyano-N-[(1-methyl-1H-pyrazol-4-yl)methyl]-6-(naphthalen-2-yl)-4-oxo-4,5-dihydropyrazolo[1,5-a]pyrazine-2-carboxamide]
15 | 3.2 nM | C[C@H](NC(=O)c1nn2cc(-c3ccc4ccccc4c3)[nH]c(=O)c2c1C#N)c1ccccc1 [Example 3-46, 3-Cyano-6-(naphthalen-2-yl)-4-oxo-N-[(1S)-1-phenylethyl]-4,5-dihydropyrazolo[1,5-a]pyrazine-2-carboxamide]
16 | 5.45 nM | CC(NC(=O)c1nn2cc(-c3ccc4ccccc4c3)[nH]c(=O)c2c1C#N)c1cccc(Br)c1 (centres unmarked) [Example 3-47, N-[1-(3-Bromophenyl)ethyl]-3-cyano-6-(2-naphthyl)-4-oxo-5H-pyrazolo[1,5-a]pyrazine-2-carboxamide]
17 | 5.5 nM | N#Cc1c(C(=O)N[C@@H]2CCCc3ccccc32)nn2cc(-c3ccc4ccccc4c3)[nH]c(=O)c12 [Example 3-48, 3-Cyano-6-(naphthalen-2-yl)-4-oxo-N-[(7R)-1,2,3,4-tetrahydronaphthalen-1-yl]-4,5-dihydropyrazolo[1,5-a]pyrazine-2-carboxamide]
18 | 1.35 nM | N#Cc1c(C(=O)NC2(c3ccccc3)CC2)nn2cc(-c3ccc4ccccc4c3)[nH]c(=O)c12 [Example 3-49, 3-Cyano-6-(naphthalen-2-yl)-4-oxo-N-(1-phenylcyclopropyl)-4,5-dihydropyrazolo[1,5-a]pyrazine-2-carboxamide]
19 | 1.75 nM | COc1ccc(C(C)NC(=O)c2nn3cc(-c4ccc5ccccc5c4)[nH]c(=O)c3c2C#N)cn1 (centres unmarked) [Example 3-50, 3-Cyano-N-[1-(6-methoxy-3-pyridyl)ethyl]-6-(2-naphthyl)-4-oxo-5H-pyrazolo[1,5-a]pyrazine-2-carboxamide]
20 | 1.85 nM | COc1ccc(C(C)NC(=O)c2nn3cc(-c4ccc5ccccc5c4)[nH]c(=O)c3c2C#N)cc1 (centres unmarked) [Example 3-51, 3-Cyano-N-[1-(4-methoxyphenyl)ethyl]-6-(2-naphthyl)-4-oxo-5H-pyrazolo[1,5-a]pyrazine-2-carboxamide]
21 | 2.25 nM | CC(NC(=O)c1nn2cc(-c3ccc4ccccc4c3)[nH]c(=O)c2c1C#N)c1ccc(F)cc1 (centres unmarked) [Example 3-52, 3-Cyano-N-[1-(4-fluorophenyl)ethyl]-6-(2-naphthyl)-4-oxo-5H-pyrazolo[1,5-a]pyrazine-2-carboxamide]
22 | 1.45 nM | Cc1ccc([C@@H](C)NC(=O)c2nn3cc(-c4ccc5ccccc5c4)[nH]c(=O)c3c2C#N)cc1 [Example 3-53, 3-Cyano-N-[(7R)-1-(4-methylphenyl)ethyl]-6-(naphthalen-2-yl)-4-oxo-4,5-dihydropyrazolo[1,5-a]pyrazine-2-carboxamide]
23 | 6.95 nM | CC(NC(=O)c1nn2cc(-c3ccc4ccccc4c3)[nH]c(=O)c2c1C#N)c1ccc(Cl)c(Cl)c1 (centres unmarked) [Example 3-54, 3-Cyano-N-[1-(3,4-dichlorophenyl)ethyl]-6-(2-naphthyl)-4-oxo-5H-pyrazolo[1,5-a]pyrazine-2-carboxamide]
24 | 7.2 nM | N#Cc1c(C(=O)NC2Cc3ccccc3C2)nn2cc(-c3ccc4ccccc4c3)[nH]c(=O)c12 [Example 3-55, 3-Cyano-N-(2,3-dihydro-1H-inden-2-yl)-6-(naphthalen-2-yl)-4-oxo-4,5-dihydropyrazolo[1,5-a]pyrazine-2-carboxamide]
25 | 3.15 nM | COc1ccc(C(NC(=O)c2nn3cc(-c4ccc5ccccc5c4)[nH]c(=O)c3c2C#N)C2CC2)cc1 (centres unmarked) [Example 3-56, 3-Cyano-N-[cyclopropyl(4-methoxyphenyl)methyl]-6-(2-naphthyl)-4-oxo-5H-pyrazolo[1,5-a]pyrazine-2-carboxamide]
26 | 2.95 nM | COc1ccc(C(C)NC(=O)c2nn3c(C)c(-c4ccc5ccccc5c4)[nH]c(=O)c3c2C)cc1 (centres unmarked) [Example 3-57, N-[1-(4-Methoxyphenyl)ethyl]-3,7-dimethyl-6-(2-naphthyl)-4-oxo-5H-pyrazolo[1,5-a]pyrazine-2-carboxamide]
27 | 2.35 nM | CC(NC(=O)c1nn2cc(-c3ccc4ccccc4c3)[nH]c(=O)c2c1C#N)c1ccc(Cl)cc1Cl (centres unmarked) [Example 3-58, 3-Cyano-N-[1-(2,4-dichlorophenyl)ethyl]-6-(2-naphthyl)-4-oxo-5H-pyrazolo[1,5-a]pyrazine-2-carboxamide]
28 | 1.25 nM | CC(C)C(NC(=O)c1nn2cc(-c3ccc4ccccc4c3)[nH]c(=O)c2c1C#N)c1ccc(F)cc1 (centres unmarked) [Example 3-59, 3-Cyano-N-[1-(4-fluorophenyl)-2-methylpropyl]-6-(2-naphthyl)-4-oxo-5H-pyrazolo[1,5-a]pyrazine-2-carboxamide]
29 | 1.85 nM | CC(NC(=O)c1nn2cc(-c3ccc4ccccc4c3)[nH]c(=O)c2c1C#N)c1ccccc1OC(F)F (centres unmarked) [Example 3-60, 3-Cyano-N-[1-[2-(difluoromethoxy)phenyl]ethyl]-6-(2-naphthyl)-4-oxo-5H-pyrazolo[1,5-a]pyrazine-2-carboxamide]
